Data as given in article PMC10065799, “High-throughput profiling of sequence recognition by tyrosine kinases and SH2 domains using bacterial peptide display” (eLife, 2023).
Like-named read-outs stand apart in the source and are kept apart here.

How the values were obtained:
Experiment in all cases: pTyr-Var library bacterial peptide display kinase screen (enrichment scores)
Fer kinase domain = assay type: biochemical, mouse; conditions: sheet "Fer"
c-Src kinase domain = c-Src kinase domain (Homo sapiens, UniProt P12931); assay type: biochemical
c-Abl kinase domain = biological target: T1, c-Abl kinase domain (Mus musculus, UniProt P00520); assay type: biochemical
T1 sequence (P00520 242-493 limits assumed): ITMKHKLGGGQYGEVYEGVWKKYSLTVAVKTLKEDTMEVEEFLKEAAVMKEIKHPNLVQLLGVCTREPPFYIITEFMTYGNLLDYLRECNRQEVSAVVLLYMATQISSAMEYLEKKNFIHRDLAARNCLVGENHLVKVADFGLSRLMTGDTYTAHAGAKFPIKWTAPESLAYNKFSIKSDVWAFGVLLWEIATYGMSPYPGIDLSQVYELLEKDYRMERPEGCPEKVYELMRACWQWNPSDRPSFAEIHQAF

EPHB1 kinase domain = assay type: biochemical, human; conditions: sheet EPHB1; effect of the variant peptide relative to its reference peptide in the pTyr-Var library screen (enrichment scores)
[1] = variant peptide relative to its reference peptide, pTyr-Var library screen enrichment
[2] = sheet "Src", variant peptide versus its reference peptide in the pTyr-Var library screen
[3] = sheet "Abl", effect of variant peptide relative to its reference peptide in pTyr-Var library screen (enrichment)
[4] = fig5-data2, sheet "Abl", Screen for the variant/reference peptide pair, pTyr-Var library
[5] = sheet "Src", effect of the variant peptide relative to its reference peptide in the pTyr-Var library screen
[6] = value of the variant peptide against its reference peptide in the pTyr-Var library screen with Fer
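Also: log2 fold change in enrichment of variant over reference.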

AAVPAYDKIQV [STXBP2_Y401_R405Q]
Screen (Fer kinase domain; [1]): 1.488

AEFGLYGAMVW [VSX2_Y222_R227W_YF]
Screen (c-Src kinase domain; [2]): -0.4242 | Screen (c-Abl kinase domain; [3]): 3.628 | Screen (Fer kinase domain; [1]): 1.328

AELKLYSGAQT [ZAP70_Y178_R175L]
Screen (c-Abl kinase domain; [3]): -2.646

AERKLYRNVML [ZNF569_Y33_Q29E]
Screen (c-Abl kinase domain; [3]): 1.464

AKLDIYKRKVE [VWA3B_Y918_N916D]
Screen (c-Abl kinase domain; [3]): 4.352

AVLSLYASGRN [ACTA1_Y145_T150N]
Screen (c-Abl kinase domain; [4]): -2.061

CHKRTYKVTGL [TTN_Y21853_C21851R]
Screen (c-Abl kinase domain; [3]): -1.801

CHSDDYVHISI [TSC1_Y406_L411I]
Screen (c-Abl kinase domain; [3]): -1.634

CPASVYTKRCS [CPT2_Y508_R503C]
Screen (c-Abl kinase domain; [4]): -1.448

DAVCFYRMENA [NPHS2_Y195_I192V_YF]
Screen (c-Src kinase domain; [2]): 0.05721

DEWFLYKMRDI [CPS1_Y879_K875E]
Screen (c-Abl kinase domain; [4]): -2.954

EAIMTYVSSFF [ACTN4_Y260_K255E_YF]
Screen (c-Abl kinase domain; [4]): -1.004

EFFDGYWEFSV [ITGA2B_Y265_G267E_YF]
Screen (c-Src kinase domain; [5]): 0.01389

EGDGVYTLNDE [HP_Y125_N129D]
Screen (c-Src kinase domain; [5]): -0.1677

ELTTCYRKKCS [CCBE1_Y70_C75S]
Screen (c-Abl kinase domain; [4]): -0.6974

ENELTYFCFKK [CD59_Y86_C89Y_YF]
Screen (c-Src kinase domain; [5]): 1.06

ETKTPYTVILI [SBDS_Y128_R126T]
Screen (c-Abl kinase domain; [3]): 0.2291

EVTRLYGSVCD [TC2N_Y154_K151T]
Screen (c-Src kinase domain; [2]): 2.081

FMGVEYSSCDT [EPHA3_Y937_T933M]
Screen (c-Abl kinase domain; [4]): -2.367

FSQETYFRVSN [ABCD1_Y180_Q178E_YF]
Screen (c-Src kinase domain): 0.7032

FTGDIYSSSNL [LZTR1_Y141_N143S_YF]
Screen (c-Src kinase domain; [5]): -0.3427 | Screen (Fer kinase domain; [6]): -0.3328

GFPVHYTGVSN [DNMT3B_Y815_D817G]
Screen (c-Abl kinase domain; [4]): 0.7985

GGPAGYLWRAS [PKLR_Y38_R40W]
Screen (c-Abl kinase domain; [4]): 0.4229

GHMFAYDWISI [BEST1_Y227_L224M_YF]
Screen (Fer kinase domain; [6]): -0.1339

GHPFAYDWISI [BEST1_Y227_L224P_YF]
Screen (Fer kinase domain; [6]): -0.03554

GLQDEYDFKCK [STAT1_Y170_D165G]
Screen (c-Abl kinase domain; [3]): -1.133

GSERRYTREGG [PTPRN2_Y139_S140T]
Screen (c-Abl kinase domain; [4]): -0.6086

HFGNNYTDVLQ [MACC1_Y803_R804T_YF]
Screen (EPHB1 kinase domain): 1.456

HFMELYDLNRD [BBS2_Y648_R643H_YF]
Screen (c-Src kinase domain; [5]): 1.185

HFVDEYDRTIE [KRAS_Y32_P34R]
Screen (c-Abl kinase domain; [4]): 1.156

HILFRYPKEFQ [IDS_Y234_P231L]
Screen (c-Src kinase domain; [5]): 0.8356

HLTLVYGGIFL [FBP1_Y259_R255L]
Screen (c-Src kinase domain; [5]): -0.5188

HLVLNYGVCIC [JAK2_Y613_V617I]
Screen (EPHB1 kinase domain): -0.07338

HQKKPYCHTHN [NRAP_Y53_A56T]
Screen (Fer kinase domain; [6]): 0.08502 | Screen (EPHB1 kinase domain): 0.5433

IFGVSYGEFRF [CFTR_Y512_D513G_YF]
Screen (c-Src kinase domain; [5]): 1.211 | Screen (Fer kinase domain; [6]): -1.628

INMKEYCKKDF [NTN1_Y490_K489E_YF]
Screen (c-Abl kinase domain; [4]): 0.9886

ISRDVYSTDFF [NTRK2_Y702_M697I_YF]
Screen (c-Src kinase domain; [2]): 0.05631

KGEDFYCVTCP [FHL1_Y149_H154P]
Screen (c-Src kinase domain; [5]): 2.585 | Screen (c-Abl kinase domain; [4]): -1.428 | Screen (Fer kinase domain; [6]): 2.355

KKDGPYDVVVL [PARK7_Y67_E64D]
Screen (Fer kinase domain; [6]): -0.9233

KQMEQYMSFHK [HCN1_Y417_V414M]
Screen (c-Src kinase domain; [5]): 0.2609

KTSGNYLPVTG [WDR19_Y28_A30P]
Screen (c-Abl kinase domain; [3]): -2.37

LDPDSYNVFEN [FOXC1_Y159_M161V]
Screen (c-Abl kinase domain; [4]): -0.1184

LDTSQYFRLFN [CPT2_Y217_M214T]
Screen (c-Abl kinase domain; [4]): -0.04852

LFLASYCIGGG [UBD_Y161_C160S]
Screen (c-Abl kinase domain; [3]): 1.114

LIGTPYWMAPE [PAK5_Y608_V604I]
Screen (c-Src kinase domain; [2]): -0.06712

LITTPYIGFLG [KCNQ1_Y267_L266P]
Screen (c-Src kinase domain; [5]): -1.29

LKVQVYILGRE [ASS1_Y359_G356V]
Screen (Fer kinase domain; [6]): 1.05

LTELGYSFVTT [ACTA1_Y200_R198L]
Screen (Fer kinase domain; [6]): 0.9203

MSDVPYVMNRG [ACAT1_Y161_N158D]
Screen (c-Abl kinase domain; [4]): 0.04557

NFPGGYSGSVK [MCPH1_Y606_L602F]
Screen (c-Abl kinase domain; [4]): 0.06785

NTEGGYCCICA [CRELD1_Y328_R329C]
Screen (c-Abl kinase domain; [4]): -0.2438

NTGDDYDLFGG [PTPN11_Y63_Y62D_YF]
Screen (c-Src kinase domain; [2]): -2.136 | Screen (Fer kinase domain; [1]): -1.594

NWGSPYKSDGC [ZNF347_Y261_N264D]
Screen (c-Abl kinase domain; [3]): 3.66

PADCRYFTFPQ [GAMT_Y222_A224T_YF]
Screen (c-Src kinase domain; [5]): 0.8198

PFSSPYENSLI [EPOR_Y489_N487S_YF]
Screen (Fer kinase domain; [6]): 0.2958

PINLFYLMDLS [ITGB2_Y131_D128N_YF]
Screen (c-Src kinase domain; [5]): -0.4123

PMWHPYKADVT [TP53TG5_Y255_V257A]
Screen (c-Src kinase domain; [2]): -1.569

PNLILYGDFRQ [MYH7_Y715_R712L]
Screen (c-Src kinase domain; [2]): -0.8884

PQEVMYAQLDH [KIR3DL2_Y398_T397M]
Screen (c-Src kinase domain; [5]): -0.9154 | Screen (Fer kinase domain; [6]): 0.4165

PSPMPYAFCQM [FOXL2_Y215_S217F]
Screen (c-Src kinase domain; [5]): 1.188 | Screen (Fer kinase domain; [6]): 3.3

PVDGEYFTLQI [TP53_Y327_L323V]
Screen (c-Src kinase domain; [2]): -0.1089

QADIIYVNTQL [MERTK_Y872_V870I]
Screen (Fer kinase domain; [6]): -0.9597 | Screen (EPHB1 kinase domain): -0.9888

QADVVYVNTQL [MERTK_Y872_I871V]
Screen (Fer kinase domain; [6]): -1.343 | Screen (EPHB1 kinase domain): -1.929

QHVPDYRQNGF [PCDHGA6_Y891_V895G_YF]
Screen (c-Abl kinase domain; [4]): 0.1057

REVPVYISEDS [SYNM_Y460_G462S]
Screen (c-Src kinase domain; [2]): 1.666

RQIQSYTCEID [DES_Y331_H326R]
Screen (c-Abl kinase domain; [4]): 0.08274

RSACTYLAPHL [PLK3_Y615_S618P]
Screen (c-Src kinase domain; [2]): 2.785 | Screen (EPHB1 kinase domain): 2.327

RSSGGYEPRGC [FUS_Y239_R244C]
Screen (c-Abl kinase domain; [4]): -2.404

RSSNTYTLMDV [ALCAM_Y298_T301M]
Screen (c-Src kinase domain; [5]): -0.02147

RTTIHYNFMCN [TP53_Y234_C229R_YF]
Screen (c-Abl kinase domain; [3]): 1.254

RVFRDYVLKSA [HTATIP2_Y111_D108Y_YF]
Screen (c-Abl kinase domain; [4]): -1.327

SEKVVYQRFTE [NCF1_Y41_R42Q]
Screen (c-Src kinase domain; [2]): 2.147

SRDDFYETIAM [NPY1R_Y347_D346Y_YF]
Screen (Fer kinase domain; [6]): 2.699

SSEILYHIIKG [CDH17_Y489_K486E]
Screen (c-Src kinase domain; [5]): 3.183

SVESPYGSVTF [NDRG2_Y47_T45S]
Screen (c-Src kinase domain; [2]): 0.3806 | Screen (Fer kinase domain; [6]): 0.8943

SVGGCYEQLFV [MC4R_Y41_D37V]
Screen (c-Src kinase domain; [5]): -0.5254 | Screen (Fer kinase domain; [6]): -0.4465

SVVVHYEPPEV [TP53_Y220_P219H]
Screen (Fer kinase domain; [1]): 1.725

SWSTSYSGFRC [NKAPL_Y91_Y96C_YF]
Screen (c-Src kinase domain; [2]): -0.8065 | Screen (Fer kinase domain; [6]): -1.554

TEDELYQLFLQ [RASGRP2_Y378_S381F]
Screen (c-Src kinase domain; [2]): 1.657 | Screen (Fer kinase domain; [1]): 1.535

TEIGQYGNGLK [MORC2_Y100_Q96E]
Screen (c-Abl kinase domain; [4]): -0.8794

TLERHYKELQA [SPTBN2_Y834_E835K]
Screen (Fer kinase domain; [1]): -2.093

TLGPFYPSLLF [CRYAA_Y18_R21L]
Screen (c-Abl kinase domain; [4]): 1.059

TVSQPYSFIEF [SEC22B_Y110_R108Q]
Screen (c-Src kinase domain; [2]): 0.852 | Screen (Fer kinase domain; [1]): 0.7571

TWEKPYECVQC [ZNF24_Y335_G331W]
Screen (c-Abl kinase domain; [3]): -4.858 | Screen (Fer kinase domain; [1]): 1.366

VCDALYPPGPP [TTN_Y25928_A25923V]
Screen (c-Abl kinase domain; [3]): -1.728

VDTPMYATMQR [TPO_Y55_A53P]
Screen (c-Src kinase domain; [2]): -0.2543

VHLFAYDWISI [BEST1_Y227_G222V_YF]
Screen (Fer kinase domain; [6]): -0.5402

VLAAQYTTVGR [SGSH_Y240_D235V]
Screen (c-Abl kinase domain; [3]): 1.42

VPLATYMQIFK [RPL21_Y30_R32Q_YF]
Screen (c-Src kinase domain; [2]): 1.658 | Screen (EPHB1 kinase domain): 2.259

VPVPGYTKVPE [SPRR3_Y146_L149V]
Screen (c-Abl kinase domain; [3]): 2.059

VVRSLYEDLED [VHL_Y185_I180V]
Screen (c-Abl kinase domain; [3]): -2.047

VWHRRYKHTHE [CTCF_Y343_R339W]
Screen (c-Abl kinase domain; [4]): -0.9062

WNDPDYMDSRR [GAA_Y407_L405P]
Screen (c-Abl kinase domain; [4]): -1.862
